Assay results: the NIST ThermoML archive (doi:10.1021/je300873x)
Numbers after ± are expanded uncertainties.

Assay: mn = molality of the nth substance listed, in mol/kg
Conditions: for surface tension liquid-gas: Pendant drop shape; for electrical conductivity: Liquid, Digital conductivity meter

Compound: CCCCCCCCCCCCCCCC[N+](C)(C)CCO.[Br-] [N-cetyl-hydroxyethyl-dimethyl ammonium bromide] + O
- surface tension liquid-gas (298.15 K, m1 = 0.00016): 61.83 ± 0.56 mN/m
- surface tension liquid-gas (298.15 K, m1 = 0.00033): 53.61 ± 0.49 mN/m
- surface tension liquid-gas (298.15 K, m1 = 0.00049): 45.49 ± 0.43 mN/m
- surface tension liquid-gas (298.15 K, m1 = 0.00059): 41.63 ± 0.4 mN/m
- surface tension liquid-gas (298.15 K, m1 = 0.00069): 39.31 ± 0.38 mN/m
- surface tension liquid-gas (298.15 K, m1 = 0.00074): 38.39 ± 0.38 mN/m
- surface tension liquid-gas (298.15 K, m1 = 0.00078): 37.61 ± 0.37 mN/m
- surface tension liquid-gas (298.15 K, m1 = 0.00083): 37.58 ± 0.37 mN/m
- surface tension liquid-gas (298.15 K, m1 = 0.00088): 37.3 ± 0.37 mN/m
- surface tension liquid-gas (298.15 K, m1 = 0.00098): 37.24 ± 0.37 mN/m
- surface tension liquid-gas (298.15 K, m1 = 0.00108): 37.15 ± 0.37 mN/m
- surface tension liquid-gas (298.15 K, m1 = 0.00118): 37.12 ± 0.37 mN/m
- electrical conductivity (298.15 K, m1 = 0.00075): 0.0068 ± 0.0001 S/m
- electrical conductivity (298.15 K, m1 = 0.00078): 0.007 ± 0.0001 S/m
- electrical conductivity (298.15 K, m1 = 0.00081): 0.0072 ± 0.0001 S/m
- electrical conductivity (298.15 K, m1 = 0.00084): 0.0074 ± 0.0001 S/m
- electrical conductivity (298.15 K, m1 = 0.00088): 0.0076 ± 0.0001 S/m
- electrical conductivity (298.15 K, m1 = 0.00092): 0.0078 ± 0.0001 S/m
- electrical conductivity (298.15 K, m1 = 0.00096): 0.0079 ± 0.0001 S/m
- electrical conductivity (298.15 K, m1 = 0.00101): 0.008 ± 0.0001 S/m
- electrical conductivity (298.15 K, m1 = 0.00106): 0.0082 ± 0.0001 S/m
- electrical conductivity (298.15 K, m1 = 0.00112): 0.0084 ± 0.0001 S/m
- electrical conductivity (298.15 K, m1 = 0.00119): 0.0085 ± 0.0001 S/m
- electrical conductivity (298.15 K, m1 = 0.00126): 0.0087 ± 0.0001 S/m
- electrical conductivity (298.15 K, m1 = 0.00135): 0.0089 ± 0.0001 S/m
- electrical conductivity (298.15 K, m1 = 0.00144): 0.0091 ± 0.0001 S/m
- electrical conductivity (298.15 K, m1 = 0.00156): 0.0094 ± 0.0001 S/m
- electrical conductivity (298.15 K, m1 = 0.00169): 0.0097 ± 0.0001 S/m
- electrical conductivity (298.15 K, m1 = 0.00184): 0.0101 ± 0.0001 S/m
- electrical conductivity (298.15 K, m1 = 0.00202): 0.0105 ± 0.0001 S/m
- electrical conductivity (303.15 K, m1 = 0.00075): 0.0076 ± 0.0001 S/m
- electrical conductivity (303.15 K, m1 = 0.00078): 0.0078 ± 0.0001 S/m
- electrical conductivity (303.15 K, m1 = 0.00081): 0.0081 ± 0.0001 S/m
- electrical conductivity (303.15 K, m1 = 0.00084): 0.0083 ± 0.0001 S/m
- electrical conductivity (303.15 K, m1 = 0.00088): 0.0085 ± 0.0001 S/m
- electrical conductivity (303.15 K, m1 = 0.00092): 0.0088 ± 0.0001 S/m
- electrical conductivity (303.15 K, m1 = 0.00096): 0.009 ± 0.0001 S/m
- electrical conductivity (303.15 K, m1 = 0.00101): 0.0091 ± 0.0001 S/m
- electrical conductivity (303.15 K, m1 = 0.00106): 0.0093 ± 0.0001 S/m
- electrical conductivity (303.15 K, m1 = 0.00112): 0.0095 ± 0.0001 S/m
- electrical conductivity (303.15 K, m1 = 0.00119): 0.0097 ± 0.0001 S/m
- electrical conductivity (303.15 K, m1 = 0.00126): 0.0099 ± 0.0001 S/m
- electrical conductivity (303.15 K, m1 = 0.00135): 0.0101 ± 0.0001 S/m
- electrical conductivity (303.15 K, m1 = 0.00144): 0.0104 ± 0.0001 S/m
- electrical conductivity (303.15 K, m1 = 0.00155): 0.0107 ± 0.0001 S/m
- electrical conductivity (303.15 K, m1 = 0.00168): 0.0111 ± 0.0001 S/m
- electrical conductivity (303.15 K, m1 = 0.00184): 0.0114 ± 0.0001 S/m
- electrical conductivity (303.15 K, m1 = 0.00202): 0.0119 ± 0.0001 S/m
- electrical conductivity (308.15 K, m1 = 0.00075): 0.0083 ± 0.0001 S/m
- electrical conductivity (308.15 K, m1 = 0.00078): 0.0086 ± 0.0001 S/m
- electrical conductivity (308.15 K, m1 = 0.00081): 0.0089 ± 0.0001 S/m
- electrical conductivity (308.15 K, m1 = 0.00084): 0.0092 ± 0.0001 S/m
- electrical conductivity (308.15 K, m1 = 0.00088): 0.0095 ± 0.0001 S/m
- electrical conductivity (308.15 K, m1 = 0.00092): 0.0097 ± 0.0001 S/m
- electrical conductivity (308.15 K, m1 = 0.00096): 0.01 ± 0.0001 S/m
- electrical conductivity (308.15 K, m1 = 0.00101): 0.0102 ± 0.0001 S/m
- electrical conductivity (308.15 K, m1 = 0.00106): 0.0105 ± 0.0001 S/m
- electrical conductivity (308.15 K, m1 = 0.00112): 0.0107 ± 0.0001 S/m
- electrical conductivity (308.15 K, m1 = 0.00119): 0.0108 ± 0.0001 S/m
- electrical conductivity (308.15 K, m1 = 0.00126): 0.0111 ± 0.0001 S/m
- electrical conductivity (308.15 K, m1 = 0.00134): 0.0113 ± 0.0001 S/m
- electrical conductivity (308.15 K, m1 = 0.00144): 0.0117 ± 0.0001 S/m
- electrical conductivity (308.15 K, m1 = 0.00155): 0.012 ± 0.0001 S/m
- electrical conductivity (308.15 K, m1 = 0.00168): 0.0125 ± 0.0001 S/m
- electrical conductivity (308.15 K, m1 = 0.00183): 0.0129 ± 0.0001 S/m
- electrical conductivity (308.15 K, m1 = 0.00202): 0.0134 ± 0.0001 S/m
- electrical conductivity (313.15 K, m1 = 0.00077): 0.0094 ± 0.0001 S/m
- electrical conductivity (313.15 K, m1 = 0.0008): 0.0098 ± 0.0001 S/m
- electrical conductivity (313.15 K, m1 = 0.00084): 0.0101 ± 0.0001 S/m
- electrical conductivity (313.15 K, m1 = 0.00087): 0.0105 ± 0.0001 S/m
- electrical conductivity (313.15 K, m1 = 0.00091): 0.0108 ± 0.0001 S/m
- electrical conductivity (313.15 K, m1 = 0.00096): 0.0111 ± 0.0001 S/m
- electrical conductivity (313.15 K, m1 = 0.00101): 0.0114 ± 0.0001 S/m
- electrical conductivity (313.15 K, m1 = 0.00106): 0.0118 ± 0.0001 S/m
- electrical conductivity (313.15 K, m1 = 0.00112): 0.012 ± 0.0001 S/m
- electrical conductivity (313.15 K, m1 = 0.00118): 0.0123 ± 0.0001 S/m
- electrical conductivity (313.15 K, m1 = 0.00126): 0.0126 ± 0.0001 S/m
- electrical conductivity (313.15 K, m1 = 0.00134): 0.0129 ± 0.0001 S/m
- electrical conductivity (313.15 K, m1 = 0.00144): 0.0133 ± 0.0001 S/m
- electrical conductivity (313.15 K, m1 = 0.00155): 0.0137 ± 0.0001 S/m
- electrical conductivity (313.15 K, m1 = 0.00168): 0.0141 ± 0.0001 S/m
- electrical conductivity (313.15 K, m1 = 0.00183): 0.0147 ± 0.0001 S/m
- electrical conductivity (313.15 K, m1 = 0.00201): 0.0154 ± 0.0001 S/m
- electrical conductivity (318.15 K, m1 = 0.00074): 0.0101 ± 0.0001 S/m
- electrical conductivity (318.15 K, m1 = 0.00077): 0.0104 ± 0.0001 S/m
- electrical conductivity (318.15 K, m1 = 0.0008): 0.0109 ± 0.0001 S/m
- electrical conductivity (318.15 K, m1 = 0.00084): 0.0112 ± 0.0001 S/m
- electrical conductivity (318.15 K, m1 = 0.00087): 0.0116 ± 0.0001 S/m
- electrical conductivity (318.15 K, m1 = 0.00091): 0.0119 ± 0.0001 S/m
- electrical conductivity (318.15 K, m1 = 0.00096): 0.0124 ± 0.0001 S/m
- electrical conductivity (318.15 K, m1 = 0.001): 0.0128 ± 0.0001 S/m
- electrical conductivity (318.15 K, m1 = 0.00106): 0.0132 ± 0.0001 S/m
- electrical conductivity (318.15 K, m1 = 0.00112): 0.0137 ± 0.0001 S/m
- electrical conductivity (318.15 K, m1 = 0.00118): 0.014 ± 0.0001 S/m
- electrical conductivity (318.15 K, m1 = 0.00126): 0.0144 ± 0.0001 S/m
- electrical conductivity (318.15 K, m1 = 0.00134): 0.0148 ± 0.0001 S/m
- electrical conductivity (318.15 K, m1 = 0.00143): 0.0152 ± 0.0001 S/m
- electrical conductivity (318.15 K, m1 = 0.00154): 0.0158 ± 0.0001 S/m
- electrical conductivity (318.15 K, m1 = 0.00167): 0.0164 ± 0.0001 S/m
- electrical conductivity (318.15 K, m1 = 0.00183): 0.0169 ± 0.0001 S/m
- electrical conductivity (318.15 K, m1 = 0.00201): 0.0174 ± 0.0001 S/m
- electrical conductivity (323.15 K, m1 = 0.00074): 0.0107 ± 0.0001 S/m
- electrical conductivity (323.15 K, m1 = 0.00077): 0.0111 ± 0.0001 S/m
- electrical conductivity (323.15 K, m1 = 0.0008): 0.0116 ± 0.0001 S/m
- electrical conductivity (323.15 K, m1 = 0.00083): 0.012 ± 0.0001 S/m
- electrical conductivity (323.15 K, m1 = 0.00087): 0.0124 ± 0.0001 S/m
- electrical conductivity (323.15 K, m1 = 0.00091): 0.0129 ± 0.0001 S/m
- electrical conductivity (323.15 K, m1 = 0.00095): 0.0134 ± 0.0001 S/m
- electrical conductivity (323.15 K, m1 = 0.001): 0.014 ± 0.0001 S/m
- electrical conductivity (323.15 K, m1 = 0.00105): 0.0143 ± 0.0001 S/m
- electrical conductivity (323.15 K, m1 = 0.00111): 0.0151 ± 0.0001 S/m
- electrical conductivity (323.15 K, m1 = 0.00118): 0.0157 ± 0.0001 S/m
- electrical conductivity (323.15 K, m1 = 0.00125): 0.016 ± 0.0001 S/m
- electrical conductivity (323.15 K, m1 = 0.00134): 0.0166 ± 0.0001 S/m
- electrical conductivity (323.15 K, m1 = 0.00143): 0.0171 ± 0.0001 S/m
- electrical conductivity (323.15 K, m1 = 0.00154): 0.0176 ± 0.0001 S/m
- electrical conductivity (323.15 K, m1 = 0.00167): 0.0182 ± 0.0001 S/m
- electrical conductivity (323.15 K, m1 = 0.00182): 0.0189 ± 0.0001 S/m
- electrical conductivity (323.15 K, m1 = 0.002): 0.0196 ± 0.0001 S/m
